The values below come from article PMC10779311, “Antileishmanial Activity, Toxicity and Mechanism of Action of Complexes of Sodium Usnate with Lanthanide Ions: Eu(III), Sm(III), Gd(III), Nd(III), La(III) and Tb(III)” (International Journal of Molecular Sciences, 2023).

Read-outs that look alike come from different tables or passages of the source.

Assay [1] deals with L. (L.) amazonensis promastigote forms. Put plainly: In vitro antileishmanial activity on promastigote forms (MTT). It is filed as cell-based, Leishmania (Leishmania) amazonensis. As to conditions: 72 h.
Assay [2] deals with L. (L.) amazonensis intracellular amastigotes. Put plainly: In vitro antileishmanial activity on intracellular amastigotes in peritoneal macrophages. The class given is cell-based, Leishmania (Leishmania) amazonensis. Particulars: for IC50: BALB/c peritoneal macrophages, 24 h, Giemsa count, read-out: L. amazonensis Intracellular Amastigotes (Ama.) IC50. How it is done:
Peritoneal macrophages were obtained from BALB/c mice in RPMI 1640 culture medium (Sigma-Aldrich® São Paulo, Brazil). After exclusion of inviable cells with trypan blue staining (Sigma-Aldrich® São Paulo, Brazil), cells were transferred to 24-well plates with 13 mm round glass coverslips (10^6 cells/well) and kept at 37 °C/5% CO2. After adhesion for one hour, cells were infected with promastigote forms of L. (L.) amazonensis in the stationary phase (4 × 10^6 cells/well). After 4 h of incubation, samples (complexes 1–7) were added in six replicates (6.25–50.0 µg·mL^−1). […] Coverslips were removed after 24 h, subjected to a dehydration battery with increasing concentrations of acetone: xylol and stained with Giemsa (Sigma-Aldrich®, São Paulo, Brazil) diluted 1:10 in distilled water. After mounting on slides, 200 cells per coverslip were analyzed by light microscopy and the average number of amastigotes/cells was calculated. IC50 was determined using a non-linear dose–response regression curve as described above. The concentrations of complexes were compared by Two-way ANOVA followed by the Tukey test.

In the next assay the test system is NIH/3T3 fibroblasts. The experiment in a line: Cytotoxicity in mammalian cells (sulforhodamine B). It is filed as cell-based. As to conditions: 48 h, read-out: Fibroblasts NIH/3T3 (Fib.) IC50. How it is done:
The cytotoxic effect of compounds 1–7 was evaluated on NIH/3T3 fibroblasts obtained from the Rio de Janeiro Cell Bank (Duque de Caxias, Brazil). Fibroblasts were seeded at […] in 96-well plates. After 24 h of fixation, cells were incubated for 48 h with 1–7 at 2.5–250 µg·mL^−1, in three replicates. Cell growth was evaluated using the sulforhodamine B colorimetric method, and the optical with absorbances read on the PT-READER microplate instrument (Spectramax 190, Molecular Devices, Sunnyvale, CA, USA) at 540 nm. […] The growth inhibition percentage-GI (%) of each test sample was calculated in Microsoft Office Excel 2007 software. IC50 was determined graphically in the Microcal Origin Version 6.00 program. The selectivity index (SI) was calculated as the ratio between the cytotoxicity on cells (IC50) and the activity on the parasite forms (IC50).

Assay [3] deals with L. (L.) amazonensis promastigote forms. Put plainly: Flow cytometry for mitochondrial membrane potential (TMRE). It is filed as cell-based, Leishmania (Leishmania) amazonensis. Particulars: for reduction in TMRE labeling (ΔΨm): treatment at IC50, relative to nontreated parasites. In general terms: In flow cytometry, cells or beads pass a laser one at a time.
Assay [4] shares this test system. Put plainly: Flow cytometry for apoptosis and membrane permeability (PE Annexin V / 7-AAD). It is filed as cell-based, Leishmania (Leishmania) amazonensis. As to conditions: for 7-AAD-stained parasites / An. (PE Annexin V-stained parasites) / An./7-AAD (double stained parasites) / Unst. (unstained parasites): treatment at IC50. The text has this:
PE Annexin V staining precedes the loss of membrane integrity observed in the final stages of cell death, resulting from either apoptotic or necrotic processes. PE Annexin V is used in conjunction with the vital dye 7-Amino-Actinomycin (7-AAD) to identify early apoptotic cells (7-AAD negative, PE Annexin V positive). Viable cells with intact membranes exclude 7-AAD, but the membranes of dead and damaged cells are permeable to 7-AAD. Cells that are in late apoptosis or already dead are both PE Annexin V and 7-AAD positive. […] Heat-killed parasites (60 °C bath/10 min) were used as positive control, and untreated parasites were used as negative control. Promastigotes were stained with 5 µL of PE Annexin V and 5 µL 7-AAD (PE Annexin V Apoptosis Detection Kit I, BD Biosciences^TM, Franklin Lakes, NJ, USA) and immediately subjected to flow cytometric analysis (BD FACSCanto^TM II). Then, 10,000 events were captured in the region previously determined to correspond to the parasites. Fluorescence was quantified and histograms were generated.

Setting [5] is: Leishmania amazonensis, Peritoneal macrophage, in Mus musculus.
The mark [6] stands for this setting: MTT, read-out: L. amazonensis Promastigotes (Pro.) IC50.
[7] abbreviates: 48 h after treatment at the calculated IC50.
The mark [8] stands for this setting: 72 h after treatment at the calculated IC50.

For `C[C@@H]1[C@H](O)[C@@H](C)/C=C/C=C/C=C/C=C/C=C/C=C/C=C/[C@H](O[C@@H]2O[C@H](C)[C@@H](O)[C@H](N)[C@@H]2O)C[C@@H]2O[C@](O)(C[C@@H](O)C[C@@H](O)[C@H](O)CC[C@@H](O)C[C@@H](O)CC(=O)O[C@H]1C)C[C@H](O)[C@H]2C(=O)O` [Amphotericin B, reference compound], the IC50 in assay [1] (Leishmania amazonensis, MTT, read-out: L. amazonensis Promastigotes (Pro.) IC50) was 145 nM; in assay [2] (setting [5]), 198 nM.

On to `CC(=O)C1=C([O-])C=C2Oc3c(C(C)=O)c(O)c(C)c(O)c3C2(C)C1=O.CC(=O)C1=C([O-])C=C2Oc3c(C(C)=O)c(O)c(C)c(O)c3C2(C)C1=O.CC(=O)C1=C([O-])C=C2Oc3c(C(C)=O)c(O)c(C)c(O)c3C2(C)C1=O.O.O.O.[Gd+3]` (stereo not drawn) [GdL3·3H2O 3], for which the results for the IC50 (with NIH/3T3 fibroblasts; in assay [1] (setting [6]); in assay [2]) were 26500 nM, 1500 nM and 5520 nM, respectively. Moreover, the figures for the “reduction in TMRE labeling (ΔΨm)” value in assay [3] (48 h) and in assay [3] (72 h) were 36.2% and 24.5%, respectively. Besides, the TMRE-labeled promastigotes in assay [3] (setting [7]) is reported as 46.8%; in assay [3] (setting [8]), 59.2%. In addition, the 7-AAD-stained parasites in assay [4] (24 h) turned out to be 0.4%; in assay [4] (48 h), 12.7%; in assay [4] (72 h) it was 3.2%. Besides, the “An. (PE Annexin V-stained parasites)” value is 0.7% in assay [4] (24 h), 2.4% in assay [4] (48 h) and 2.6% in assay [4] (72 h). Also, the “An./7-AAD (double stained parasites)” value was 0.6% in assay [4] (24 h), 6% in assay [4] (48 h) and 7.4% in assay [4] (72 h). Also, the “Unst. (unstained parasites)” value is given as 98.4% in assay [4] (24 h), 78.8% in assay [4] (48 h) and 86.8% in assay [4] (72 h). Also, the “reduction in cell viability” value in assay [4] (48 h after treatment at IC50) worked out at 17.4%.

With `CC(=O)C1=C([O-])C=C2Oc3c(C(C)=O)c(O)c(C)c(O)c3C2(C)C1=O.CC(=O)C1=C([O-])C=C2Oc3c(C(C)=O)c(O)c(C)c(O)c3C2(C)C1=O.CC(=O)C1=C([O-])C=C2Oc3c(C(C)=O)c(O)c(C)c(O)c3C2(C)C1=O.O.O.O.[La+3]` (stereo not drawn) [LaL3·3H2O 7], the IC50 with NIH/3T3 fibroblasts stood at 10900 nM; in assay [1] (setting [6]), 1490 nM; in assay [2], 4580 nM. The TMRE-labeled promastigotes in assay [3] (setting [7]) was 76.0%; in assay [3] (setting [8]) it was 82.0%. Moreover, in assay [3] (72 h), the “reduction in TMRE labeling (ΔΨm)” value is on record as 22.3%. Moreover, the results for the 7-AAD-stained parasites in assay [4] (24 h), in assay [4] (48 h) and in assay [4] (72 h) were 0.4%, 1.6% and 5.6%, respectively. Further, the entries for the “An. (PE Annexin V-stained parasites)” value in assay [4] (24 h), in assay [4] (48 h) and in assay [4] (72 h) were 0.7%, 1.8% and 2.4%, respectively. For the same molecule, the entries for the “An./7-AAD (double stained parasites)” value in assay [4] (24 h), in assay [4] (48 h) and in assay [4] (72 h) were 0.5%, 3.3% and 10.0%, respectively. The entries for the “Unst. (unstained parasites)” value in assay [4] (24 h), in assay [4] (48 h) and in assay [4] (72 h) were 98.3%, 93.3% and 82.0%, respectively. Besides, in assay [2] (class by IC50), the “Intracellular amastigote activity, arbitrary scale” value is reported as “active”.

For `CC(=O)C1=C([O-])C=C2Oc3c(C(C)=O)c(O)c(C)c(O)c3C2(C)C1=O.CC(=O)C1=C([O-])C=C2Oc3c(C(C)=O)c(O)c(C)c(O)c3C2(C)C1=O.CC(=O)C1=C([O-])C=C2Oc3c(C(C)=O)c(O)c(C)c(O)c3C2(C)C1=O.O.O.O.[Nd+3]` (stereo not drawn) [NdL3·3H2O 5], the IC50 in the assay with NIH/3T3 fibroblasts is 19700 nM; in assay [1] (setting [6]) it was 910 nM; in assay [2] it was 2830 nM. For the same molecule, the TMRE-labeled promastigotes is 70.1% in assay [3] (setting [7]) and 60.9% in assay [3] (setting [8]). Also, in assay [3] (72 h), the “reduction in TMRE labeling (ΔΨm)” value is recorded as 11.35%. Moreover, the 7-AAD-stained parasites in assay [4] (24 h) is 0.3%; in assay [4] (48 h), 1.6%; in assay [4] (72 h), 7.7%. For the same molecule, the “An. (PE Annexin V-stained parasites)” value worked out at 0.7% in assay [4] (24 h), 1.4% in assay [4] (48 h) and 2.5% in assay [4] (72 h). The “An./7-AAD (double stained parasites)” value is reported as 0.5% in assay [4] (24 h), 3.3% in assay [4] (48 h) and 10.0% in assay [4] (72 h). The “Unst. (unstained parasites)” value turned out to be 98.4% in assay [4] (24 h), 93.8% in assay [4] (48 h) and 79.8% in assay [4] (72 h).

On to `N=C(N)c1ccc(OCCCCCOc2ccc(C(=N)N)cc2)cc1` [Pentamidine, reference compound], for which the IC50 in assay [1] (setting [6]) is 1490 nM; in assay [1] (Leishmania amazonensis, read-out: L. amazonensis Promastigotes (Pro.) IC50, 72 h, MTT) it was 1500 nM; in assay [2] (setting [5]), 920 nM.

`CC(=O)C1=C([O-])C=C2Oc3c(C(C)=O)c(O)c(C)c(O)c3C2(C)C1=O.CC(=O)C1=C([O-])C=C2Oc3c(C(C)=O)c(O)c(C)c(O)c3C2(C)C1=O.CC(=O)C1=C([O-])C=C2Oc3c(C(C)=O)c(O)c(C)c(O)c3C2(C)C1=O.O.O.O.O.[Sm+3]` (stereo not drawn) [SmL3·4H2O 2]: the IC50 was determined as 20000 nM in the assay on NIH/3T3 fibroblasts, 1260 nM in assay [1] (setting [6]) and 5230 nM in assay [2]. Further, the “reduction in TMRE labeling (ΔΨm)” value in assay [3] (48 h) was 40.7%; in assay [3] (72 h), 41.7%. The TMRE-labeled promastigotes is 43.5% in assay [3] (setting [7]) and 45.7% in assay [3] (setting [8]). For the same molecule, the 7-AAD-stained parasites in assay [4] (24 h) is 10.2%; in assay [4] (48 h) it was 2.8%; in assay [4] (72 h) it was 4.0%. The “An. (PE Annexin V-stained parasites)” value in assay [4] (24 h) was found to be 3.1%; in assay [4] (48 h), 1.7%; in assay [4] (72 h), 2.5%. Further, the “An./7-AAD (double stained parasites)” value is given as 5.5% in assay [4] (24 h), 3.4% in assay [4] (48 h) and 7.6% in assay [4] (72 h). Moreover, the results for the “Unst. (unstained parasites)” value in assay [4] (24 h), in assay [4] (48 h) and in assay [4] (72 h) were 81.2%, 92.1% and 85.8%, respectively. Also, the reduction in viability in assay [4] (24 h after treatment at IC50) came to 17.2%.

As for `CC(=O)C1=C([O-])C=C2Oc3c(C(C)=O)c(O)c(C)c(O)c3C2(C)C1=O.CC(=O)C1=C([O-])C=C2Oc3c(C(C)=O)c(O)c(C)c(O)c3C2(C)C1=O.CC(=O)C1=C([O-])C=C2Oc3c(C(C)=O)c(O)c(C)c(O)c3C2(C)C1=O.O.O.[Tb+3]` (stereo not drawn) [TbL3·2H2O 6], the IC50 came out at 17500 nM in the assay on NIH/3T3 fibroblasts, 2.3 nM in assay [1] (setting [6]) and 7520 nM in assay [2]. Besides, the TMRE-labeled promastigotes in assay [3] (setting [7]) is 70.2%; in assay [3] (setting [8]), 69.5%. In addition, the 7-AAD-stained parasites in assay [4] (24 h) is listed as 0.2%; in assay [4] (48 h), 1.2%; in assay [4] (72 h), 6.4%. The entries for the “An. (PE Annexin V-stained parasites)” value in assay [4] (24 h), in assay [4] (48 h) and in assay [4] (72 h) were 0.8%, 1.3% and 2.6%, respectively. For the same molecule, the “An./7-AAD (double stained parasites)” value in assay [4] (24 h) is listed as 0.6%; in assay [4] (48 h), 3.0%; in assay [4] (72 h), 10.1%. In addition, the “Unst. (unstained parasites)” value in assay [4] (24 h) was found to be 98.3%; in assay [4] (48 h) it was 94.5%; in assay [4] (72 h), 80.9%.
